Here are results for seven compounds from article PMC10807245 (Protein Science : A Publication of the Protein Society, 2024).

The target of experiment [1] is T1, IMPα2ΔIBB (Mus musculus, UniProt P52293). Description: biochemical. In kind it is binding. The settings on record: for Kd: SEM; for binding to IMPα2ΔIBB: FITC-labeled MCPyV LTA NLS peptides, EMSAs and FP assays, in words.
The target in experiment [2] is IMPα7ΔIBB (Homo sapiens, UniProt O60684). Description: FP assay, FITC-cNLS peptide binding to IMPα7ΔIBB. The conditions noted are these: FITC-Ahx-cNLS peptide, two-fold dilutions of recombinant IMPα7ΔIBB, tris-buffered saline, 200 μL, one site specific binding fit, mean ± SEM, three independent experiments, read-out: Kd (nM), a7. An excerpt: (§1) Recombinant IMPαΔIBB proteins were produced for structural analysis and assays to elucidate the binding profiles with PyV LTAs. For this, plasmid constructs encoding IMPα isoforms with an N‐terminal truncation removing the autoinhibitory IBB domain (ΔIBB) were synthesized (GenScript Biotech, Singapore). Codon optimized genes were designed with an N‐terminal 6xHis tag and TEV protease cleavage site and were cloned into the BamHI site of pET30a (GenScript Biotech, Singapore). […] For protein expression, the plasmids were transformed via heat shock into BL21(DE3)pLysS E. coli cells (Thermofisher Scientific, Monza, Italy) and grown in 1 L baffled flasks at room temperature using auto‐induction methods for 24–48 h (Studier, [2005]). […] Following this, the 6xHis tag was cleaved using TEV protease incubated overnight at 4°C, and then further purified via gel filtration using a Superdex 200 pg 26/600 column (Cytiva, Marlborough, USA) and tris‐buffered saline (50 mM tris, 125 mM sodium chloride, pH 8.0). […] Peak fractions were assessed for purity using SDS‐PAGE, then pooled and concentrated using 10 kDa cutoff centrifugal filters (Merck Millipore, Milan, Italy). All samples were aliquoted and stored at −80°C until further use.
(§2) Peptides corresponding to the cNLS regions of each PyV were synthesized for use in crystallography and binding assays. An automated CEM Liberty Blue solid phase peptide synthesizer generated each peptide with an added N‐terminal fluorescein isothiocyanate (FITC) tag. The reaction was performed using DIC and Oxyma coupling reagent and Fmoc deprotection with 20% (v/v) piperidine/DMF solution, all at 90°C. Following the final coupling, peptides were cleaved from the resin using a solution of TFA/TIPS/H2O (95/2.5/2.5) for 3 h. Purification was performed with HPLC and the peptides lyophilized to powder. […]
(§3) FP was used to quantify binding affinities of the HPyV LTA cNLSs for IMPαΔIBB proteins. […] The CLARIOstar Plus (BMG Labtech, Mornington, Australia) plate reader measured FP values, with each assay repeated in triplicate. […]

The target of experiment [3] is IMPα1ΔIBB (Homo sapiens, UniProt P52292). Briefly: Fluorescence polarization (FP) assay, FITC-cNLS peptide binding to IMPα1ΔIBB. The conditions noted are these: FITC-Ahx-cNLS peptide, two-fold dilutions of recombinant IMPα1ΔIBB, tris-buffered saline, 200 μL, one site specific binding fit, mean ± SEM, three independent experiments, read-out: Kd (nM), a1.
Source text: as §1, §2, §3

Experiment [4] addresses IMPα5ΔIBB (Homo sapiens, UniProt P52294). Description: FP assay, FITC-cNLS peptide binding to IMPα5ΔIBB. The settings on record: FITC-Ahx-cNLS peptide, two-fold dilutions of recombinant IMPα5ΔIBB, tris-buffered saline, 200 μL, one site specific binding fit, mean ± SEM, three independent experiments, read-out: Kd (nM), a5.
Source text: as §1, §2, §3

In experiment [5] the target is IMPα3ΔIBB (Homo sapiens, UniProt O00629). Description: biochemical. In kind it is binding. The settings on record: for Kd: SEM.
Source text: as §1
Peptides corresponding to the cNLS regions of each PyV were synthesized for use in crystallography and binding assays. An automated CEM Liberty Blue solid phase peptide synthesizer generated each peptide with an added N‐terminal fluorescein isothiocyanate (FITC) tag. The reaction was performed using DIC and Oxyma coupling reagent and Fmoc deprotection with 20% (v/v) piperidine/DMF solution, all at 90°C. Following the final coupling, peptides were cleaved from the resin using a solution of TFA/TIPS/H2O (95/2.5/2.5) for 3 h. Purification was performed with HPLC and the peptides lyophilized to powder. Prior to use, peptide stock solutions were resolubilized to 10 mM concentration, aliquoted, and stored at −20°C until use.
FP was used to quantify binding affinities of the HPyV LTA cNLSs for IMPαΔIBB proteins. Two‐fold dilutions of recombinant IMPαΔIBB proteins were titrated into black Fluotrac microplates (Greiner Bio‐One, Kremsmünster, Austria) and FITC‐cNLS peptides were added to each well before making up to a total volume of 200 μL with tris‐buffered saline. The gain adjustment was made using a well with no FITC‐NLS peptide. The CLARIOstar Plus (BMG Labtech, Mornington, Australia) plate reader measured FP values, with each assay repeated in triplicate. Binding curves to calculate K d and B max values were generated with the one site specific binding least square fit function of Prism 9 (GraphPad) software.

The target in experiment [6] is T1, IMPα2ΔIBB. Description: X-ray crystallography of cNLS peptides complexed with IMPα2ΔIBB. In kind it is binding. The conditions noted are these: FITC-cNLS peptide soaked or co-crystallized, in words. From the text:
Recombinant IMPαΔIBB proteins were produced for structural analysis and assays to elucidate the binding profiles with PyV LTAs. For this, plasmid constructs encoding IMPα isoforms with an N‐terminal truncation removing the autoinhibitory IBB domain (ΔIBB) were synthesized (GenScript Biotech, Singapore). Codon optimized genes were designed with an N‐terminal 6xHis tag and TEV protease cleavage site and were cloned into the BamHI site of pET30a (GenScript Biotech, Singapore). […] For protein expression, the plasmids were transformed via heat shock into BL21(DE3)pLysS E. coli cells (Thermofisher Scientific, Monza, Italy) and grown in 1 L baffled flasks at room temperature using auto‐induction methods for 24–48 h (Studier, [2005]). […] Peak fractions were assessed for purity using SDS‐PAGE, then pooled and concentrated using 10 kDa cutoff centrifugal filters (Merck Millipore, Milan, Italy). […]
X‐ray crystallography was employed to characterize HPyV LTA cNLSs bound to IMPα2ΔIBB. […] Protein interface interactions used in the structure figures were calculated using PDBePISA (Krissinel & Henrick, [2007]), with hydrogens removed in the PDB input models.

In experiment [7] the test system is IMPαΔIBB isoforms. Briefly: Electrophoresis mobility shift assays (EMSAs) of FITC-cNLS peptides with IMPαΔIBB isoforms. The class given is binding. The settings on record: EMSA, 1.5% agarose gel, TB buffer pH 8.5, FITC-cNLS peptide, in words. On the technique in general: A gel shift assay detects complexes by their altered migration in electrophoresis.
The test system of experiment [8] is IMPαΔIBB isoforms. Briefly: FP assays, summary over all IMPαΔIBB isoforms. The class given is binding.
Source text: as §1, with “All samples were aliquoted and stored at −80°C until further use.” left out
as §3

Where a SMILES comes first, the peptide text is derived from it. Where no end group is shown, it is not given here. The star is where a group is joined. FITC = O=C1OC2(c3ccc(O)cc3Oc3cc(O)ccc32)c2ccc(NC(=S)*)cc21; Ahx = NCCCCCC(=O)O

Broadly, the Kd is the equilibrium constant for the complex coming apart.

Chain of IMPα5ΔIBB (P52294 73-538, stated change not applied): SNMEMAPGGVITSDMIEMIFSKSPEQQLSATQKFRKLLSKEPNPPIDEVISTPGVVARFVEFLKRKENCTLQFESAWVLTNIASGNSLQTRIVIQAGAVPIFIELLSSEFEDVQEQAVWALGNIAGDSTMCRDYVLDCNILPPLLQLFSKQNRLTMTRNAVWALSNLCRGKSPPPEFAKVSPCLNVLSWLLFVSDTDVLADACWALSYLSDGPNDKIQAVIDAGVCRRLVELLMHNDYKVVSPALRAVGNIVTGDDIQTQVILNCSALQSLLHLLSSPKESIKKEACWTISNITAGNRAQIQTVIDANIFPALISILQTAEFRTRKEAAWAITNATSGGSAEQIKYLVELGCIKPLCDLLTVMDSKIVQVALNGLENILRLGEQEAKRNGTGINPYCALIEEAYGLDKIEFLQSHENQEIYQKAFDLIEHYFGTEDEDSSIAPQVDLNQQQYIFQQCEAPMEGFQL
Chain of IMPα7ΔIBB (O60684 73-536, stated change not applied): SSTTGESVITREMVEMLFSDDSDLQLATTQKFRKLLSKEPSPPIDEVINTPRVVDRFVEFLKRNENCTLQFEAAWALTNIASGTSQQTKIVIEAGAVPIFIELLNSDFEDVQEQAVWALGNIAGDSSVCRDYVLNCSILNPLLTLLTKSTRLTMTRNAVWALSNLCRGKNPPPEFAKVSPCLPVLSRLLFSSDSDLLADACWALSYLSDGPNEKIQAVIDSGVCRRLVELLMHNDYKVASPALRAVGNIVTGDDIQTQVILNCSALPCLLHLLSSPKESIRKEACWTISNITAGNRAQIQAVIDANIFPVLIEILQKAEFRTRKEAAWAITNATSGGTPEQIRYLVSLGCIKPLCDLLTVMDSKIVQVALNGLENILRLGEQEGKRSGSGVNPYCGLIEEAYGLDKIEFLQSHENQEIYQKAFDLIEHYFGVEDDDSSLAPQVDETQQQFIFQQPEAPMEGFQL
Chain of IMPα3ΔIBB (O00629 64-521, stated change not applied): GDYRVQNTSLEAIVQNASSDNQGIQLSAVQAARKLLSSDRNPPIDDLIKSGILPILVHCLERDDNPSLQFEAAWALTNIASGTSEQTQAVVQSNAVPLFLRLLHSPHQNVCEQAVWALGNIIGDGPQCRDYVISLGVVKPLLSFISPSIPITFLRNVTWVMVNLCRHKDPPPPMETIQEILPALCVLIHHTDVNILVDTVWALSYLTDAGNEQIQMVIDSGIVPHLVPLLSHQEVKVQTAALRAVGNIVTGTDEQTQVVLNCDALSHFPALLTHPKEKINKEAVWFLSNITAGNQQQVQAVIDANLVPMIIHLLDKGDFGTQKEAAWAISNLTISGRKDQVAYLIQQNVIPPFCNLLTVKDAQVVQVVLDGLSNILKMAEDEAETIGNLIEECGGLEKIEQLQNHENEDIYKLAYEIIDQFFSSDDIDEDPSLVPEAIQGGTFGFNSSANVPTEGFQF

With `CSCC[C@H](NC(=O)CCCCCNC(=S)Nc1ccc2c(c1)C(=O)OC21c2ccc(O)cc2Oc2cc(O)ccc21)C(=O)N[C@@H](Cc1ccccc1)C(=O)N[C@@H](C)C(=O)N[C@@H](CO)C(=O)N[C@@H](CC(=O)O)C(=O)N[C@@H](CC(=O)O)C(=O)N[C@@H](CCC(=O)O)C(=O)N[C@@H](CC(N)=O)C(=O)N[C@H](C(=O)NCC(=O)N[C@@H](CO)C(=O)N[C@@H](CCC(N)=O)C(=O)N[C@@H](Cc1c[nH]cn1)C(=O)N[C@@H](CO)C(=O)N[C@H](C(=O)N1CCC[C@H]1C(=O)N1CCC[C@H]1C(=O)N[C@@H](CCCCN)C(=O)N[C@@H](CCCCN)C(=O)N[C@@H](CCCCN)C(=O)N[C@@H](CCCCN)C(=O)N[C@@H](CCCCN)C(=O)N[C@H](C(=O)O)C(C)C)[C@@H](C)O)[C@@H](C)O` [JCPyV] ({FITC-Ahx}-MFASDDENTGSQHSTPPKKKKKV-OH; C-terminus assumed), the equilibrium dissociation constant (Kd) is 0.0896 ± 0.003 µM in experiment [1]; 103 ± 1.1 nM in experiment [2]; 76.9 ± 2 nM in experiment [3]; 271 ± 4.1 nM in experiment [4]; 0.119 ± 0.0028 µM in experiment [5].
As to `C[C@H](NC(=O)[C@H](Cc1c[nH]cn1)NC(=O)[C@H](CCCCN)NC(=O)[C@H](CCCCN)NC(=O)[C@H](CCCCN)NC(=O)[C@@H]1CCCN1C(=O)[C@@H]1CCCN1C(=O)[C@@H](NC(=O)[C@H](C)NC(=O)[C@H](CCC(N)=O)NC(=O)[C@H](CO)NC(=O)[C@H](CS)NC(=O)[C@H](CO)NC(=O)[C@@H]1CCCN1C(=O)[C@H](CCC(=O)O)NC(=O)[C@H](CCC(=O)O)NC(=O)[C@H](CCC(=O)O)NC(=O)[C@@H]1CCCN1C(=O)[C@H](C)NC(=O)[C@H](CO)NC(=O)[C@H](CCCNC(=N)N)NC(=O)[C@H](CCCCN)NC(=O)CCCCCNC(=S)Nc1ccc2c(c1)C(=O)OC21c2ccc(O)cc2Oc2cc(O)ccc21)[C@@H](C)O)C(=O)O` [KIPyV] ({FITC-Ahx}-KRSAPEEEPSCSQATPPKKKHA-OH; C-terminus assumed), the Kd in experiment [1] amounted to 0.014 ± 0.003 µM; in experiment [2], 8 ± 1 nM; in experiment [3], 22 ± 1 nM; in experiment [4], 10 ± 1 nM; in experiment [5], 0.011 ± 0.002 µM.
Taken in the same sequence, the figures for `C[C@H](NC(=O)[C@H](CCC(N)=O)NC(=O)[C@H](CO)NC(=O)[C@H](CS)NC(=O)[C@H](CCC(N)=O)NC(=O)[C@@H]1CCCN1C(=O)[C@H](CCC(=O)O)NC(=O)[C@H](CCC(=O)O)NC(=O)[C@H](CC(=O)O)NC(=O)[C@H](CC(=O)O)NC(=O)[C@H](CCC(=O)O)NC(=O)[C@H](CCCNC(=N)N)NC(=O)[C@@H](NC(=O)[C@H](CCCNC(=N)N)NC(=O)[C@H](CCCCN)NC(=O)CCCCCNC(=S)Nc1ccc2c(c1)C(=O)OC21c2ccc(O)cc2Oc2cc(O)ccc21)[C@@H](C)O)C(=O)N[C@H](C(=O)N1CCC[C@H]1C(=O)N1CCC[C@H]1C(=O)N[C@@H](CCCCN)C(=O)N[C@@H](CCCCN)C(=O)N[C@@H](CCCCN)C(=O)N[C@@H](CCCCN)C(=O)N[C@@H](CC(=O)O)C(=O)O)[C@@H](C)O` [WUPyV] ({FITC-Ahx}-KRTREDDEEPQCSQATPPKKKKD-OH; C-terminus assumed) were 0.0361 ± 0.0022 µM, 0.1 ± 0.1 nM, 0.2 ± 0.02 nM, 0.9 ± 0.04 nM and 0.0003 ± 3e-05 µM.
In the case of “{FITC-Ahx}-MFASDDENTGSQHSTPPKKKKKV [JCPyV LTA NLS peptide, FITC-Ahx-labelled synthetic peptide of JCPyV LTA monopartite cNLS, residues 111-133]”, the “binding mode in crystal structure with IMPα2ΔIBB” value in experiment [6] is “bound as a monopartite cNLS at the major site of IMPα2ΔIBB”. Further, the “co-migration with IMPαΔIBB isoforms” value in experiment [7] is reported as “co‐migrated with all IMPαΔIBB isoforms”.
For “{FITC-Ahx}-PFSRKRTFGGS [MCPyV NLSm K280T]”, the “binding to IMPα2ΔIBB” value in experiment [1] was “completely abrogated IMPα2ΔIBB binding”.
Same read-out and setting: next, “{FITC-Ahx}-PFSRKRTFGGSRSSASSASSASFTSTPPKPKKNRE [MCPyV NLSbip K280T]”: “completely abrogated IMPα2ΔIBB binding to MCPyV LTA NLSm but not NLSbip”.
“{FITC-Ahx}-SSSDEEEPASSASVNPEEGCSQDSKYSATPPKQKKPN [HPyV7 LTA cNLS peptide]”: in experiment [5] (in vitro, FP, in words), the “binding to IMPα3ΔIBB” value is given as “weakly binding IMPα3ΔIBB”. Besides, the IMPα isoform specificity entry in experiment [8] (in words) is given as “selectively bound to IMPα3ΔIBB”. Moreover, in experiment [8] (span over IMPα1, 2, 3, 5, 7 ΔIBB), the “Kds for IMPαΔIBB isoforms” value was “too weak to allow estimation of a Kd”. Moreover, the “co-migration with IMPαΔIBB isoforms” value in experiment [7] was “a very small fraction of HPyV7 LTA monopartite cNLS co‐migrated with IMPαΔIBB isoforms”.
